3 compounds from ChEMBL document CHEMBL1134312, “Design, synthesis, and biological activity of a novel non-cisplatin-type platinum-acridine pharmacophore” (J Med Chem, 2001) can be followed below.

Assay [1] in a line: Cytotoxicity against human ovarian 2008 (wild type) cell lines. The format is functional, cell-based.
Assay [2] concerns HL-60. The assay is described as follows: Cytotoxicity against HL-60 leukemia cells. The format is functional, cell-based, Homo sapiens.
The subject of assay [3] is C13. Description: Cytotoxicity against cisplatin-resistant cell lines (C13*). The format is functional, cell-based, Homo sapiens.

For orientation: IC50 means the concentration that gives 50% inhibition. Low readings indicate greater potency in that assay, high ones weaker potency in that assay. “9-acridinylmethylamino-methylaminomethanethione1-PtCl(en)”: the IC50 is above 100 µM in assay [1], 75 µM in assay [2] (hl-60) and above 100 µM in assay [3] (c13).
Consider `CNC(=S)N(C)CCNc1c2ccccc2nc2ccccc12`, for which the IC50 in assay [1] (Homo sapiens) was found to be 2.2 µM; in assay [2] (Homo sapiens, HL-60), 11 µM; in assay [3] (Homo sapiens, C13), 3.7 µM.
Regarding “2-(9-acridiniumylamino)ethyl(methyl)amino(imino)methyl(methyl)amine1-PtCl(en)”, the IC50 in assay [1] was 3.8 µM; in assay [2] (hl-60) it was 0.13 µM; in assay [3] (c13), 9.6 µM.
